According to patent US9107415B2, “2-(substituted-phenyl)-cyclopentane-1,3-dione compounds, and derivatives thereof” (Syngenta Limited, priority 2011, dated 2015):

Tests used:
Format in all cases: in vivo
Avena fatua (AVEFA) [1] = assay: Biological Example 1 glasshouse screen, pre-emergence herbicidal activity; conditions: 312 h, application rate 250 g/ha, evaluated after 13 days, read-out: AVEFA percentage phytotoxicity
Summary of the method: (§1)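 Pots in a glasshouse (24/16°C day/night, 14 h light, 65% humidity) were sprayed one day after sowing (pre-emergence) or after 8 days (post-emergence), using acetone/water (50:50) with 0.5% Tween 20. Phytotoxicity was scored visually as % damage (0-100) 13 days after application.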

Lolium perenne (LOLPE) = assay: as above; conditions: 312 h, application rate 250 g/ha, evaluated after 13 days, read-out: LOLPE percentage phytotoxicity
Summary of the method: as §1

[2] = tested on: Triticum aestivum, wheat (TRZAW); assay: Biological Example 3 glasshouse screen, post-emergence, phytotoxicity on wheat; conditions: 360 h, 15 DAA, no safener, read-out: TRZAW percentage phytotoxicity; for pest or weed control at 30 g/ha: application rate 30 g/ha; for pest or weed control at 60 g/ha: application rate 60 g/ha
Summary of the method: (§2)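 Plants grown 12 days under glass (24/18°C. or 20/16°C. day/night, 16 h light, 65% humidity) were sprayed post-emergence with compound in acetone plus IF50, with 0.2% v/v X-77 adjuvant added. Percentage phytotoxicity was scored visually at 15 DAA (0% = no damage, 100% = total damage). No safener was used.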

[3] = tested on: Alopecurus myosuroides, blackgrass (ALOMY); assay: Biological Example 3 glasshouse screen, post-emergence herbicidal activity; conditions: 360 h, 15 DAA, no safener, read-out: ALOMY percentage phytotoxicity; for pest or weed control at 30 g/ha: application rate 30 g/ha; for pest or weed control at 60 g/ha: application rate 60 g/ha
Summary of the method: as §2

[4] = tested on: Avena fatua, wild oats (AVEFA); assay: as above; conditions: 360 h, 15 DAA, no safener, read-out: AVEFA percentage phytotoxicity; for pest or weed control at 30 g/ha: application rate 30 g/ha; for pest or weed control at 60 g/ha: application rate 60 g/ha
Summary of the method: as §2

[5] = tested on: Lolium perenne, perennial ryegrass (LOLPE); assay: as above; conditions: 360 h, 15 DAA, no safener, read-out: LOLPE percentage phytotoxicity; for pest or weed control at 30 g/ha: application rate 30 g/ha; for pest or weed control at 60 g/ha: application rate 60 g/ha
Summary of the method: as §2

[6] = tested on: Alopecurus myosuroides (ALOMY); assay: Biological Example 4B (not-previously-formulated compounds) post-emergence herbicidal activity on grassy weeds; conditions: 14 DAA, technical compound in IF50 + Adigor, mean of two
Protocol: (§3) Seeds of a variety of test species are sown in standard soil in pots. After cultivation for 14 days under controlled conditions in a glasshouse (at 22/16°C., day/night; 16 hours light; 65% humidity), the plants are sprayed with an aqueous spray solution derived from the formulation of the technical active ingredient dissolved in acetone plus IF50 containing
(§4) 10.56 wt % Emulsogen™EL (castor oil ethoxylate, CAS Registry number 61791-12-6)
(§5) 42.22 wt % N-Methyl pyrrolidone
(§6) 42.22 wt % dipropylene glycol monoethyl ether
(§7) at a 1:20 ratio of (technical active ingredient:IF50). The adjuvant Adigor™(an adjuvant containing inter alia methylated rapeseed oil, e.g. available from Syngenta) is added to form a 0.5% v/v solution. The test plants are then grown on under controlled conditions in the glasshouse (at 22/16°C., day/night; 16 hours light; 65% humidity) and are watered twice daily. After 14 days the test is evaluated (100%=total damage to plant; 0%=no damage to plant).
(§8) […] Herbicidal activity (phytotoxicity) is evaluated visually, and an assessed percentage phytotoxicity score is given for each herbicidal application on each plant species (with 100%=total damage to plant; 0%=no damage to plant). Two repetitions are made for each experiment, and the mean herbicidal activity (phytotoxicity) data is reported.
(§9) Test plants: Avena fatua (AVEFA), Lolium multiflorum (LOLMU), Setaria viridis (SETVI), Poa annua (POAAN), Alopecurus myosuroides (ALOMY). All five of these are grassy monocotyledonous weeds.

Avena fatua (AVEFA) [7] = assay: as above; conditions: 14 DAA, technical compound in IF50 + Adigor, mean of two
Protocol: as §3, §4, §5, §6, §7, §8, §9

Poa annua (POAAN) = assay: as above; conditions: 14 DAA, technical compound in IF50 + Adigor, mean of two
Protocol: as §3, §4, §5, §6, §7, §8, §9

Setaria viridis (SETVI) = assay: as above; conditions: 14 DAA, technical compound in IF50 + Adigor, mean of two
Protocol: as §3, §4, §5, §6, §7, §8, §9

[8] = 30 g/ha, cloquintocet-mexyl 50 g/ha
[9] = 60 g/ha, cloquintocet-mexyl 0 g/ha
[10] = 60 g/ha, cloquintocet-mexyl 50 g/ha
[11] = 15 g/ha, cloquintocet-mexyl 50 g/ha

SMILES	pest or weed control at 250 g/ha (Avena fatua (AVEFA) [1])	pest or weed control at 250 g/ha (Lolium perenne (LOLPE))	pest or weed control at 30 g/ha [2]	pest or weed control at 30 g/ha [3]	pest or weed control at 30 g/ha [4]	pest or weed control at 30 g/ha [5]	ALOMY % phytotoxicity [6, 8]	ALOMY % phytotoxicity [6, 9]	ALOMY % phytotoxicity [6, 10]	AVEFA % phytotoxicity (Avena fatua (AVEFA) [7]; [8])	AVEFA % phytotoxicity (Avena fatua (AVEFA) [7]; [9])	AVEFA % phytotoxicity (Avena fatua (AVEFA) [7]; [10])	POAAN % phytotoxicity (Poa annua (POAAN); [8])	POAAN % phytotoxicity (Poa annua (POAAN); [9])	POAAN % phytotoxicity (Poa annua (POAAN); [10])	SETVI % phytotoxicity (Setaria viridis (SETVI); [8])	SETVI % phytotoxicity (Setaria viridis (SETVI); [9])	SETVI % phytotoxicity (Setaria viridis (SETVI); [10])	pest or weed control at 60 g/ha [2]	pest or weed control at 60 g/ha [3]	other results
CC#Cc1cc(C)c(C2=C(O)CC(Cc3ccc(C)cn3)C2=O)c(C)c1 (stereo not shown) [Compound A-8]	100%	100%	40%	80%	70%	90%	63%	94%	94%	45%	97%	95%	65%	80%	75%	55%	75%	75%	–	–	–
CC#Cc1cc(C)c(C2=C(O)CC(Cc3ccc(C#N)cn3)C2=O)c(C)c1 (stereo not shown) [Compound A-14]	50%	90%	20%	70%	0%	70%	78%	97%	97%	38%	83%	80%	83%	85%	85%	99%	100%	100%	40%	90%	pest or weed control at 60 g/ha [4]: 60%; pest or weed control at 60 g/ha [5]: 80%
CC#Cc1cc(C)c(C2C(=O)CC(Cc3ccn(C)n3)C2=O)c(C)c1 (stereo not shown) [Compound A-19]	100%	100%	70%	100%	90%	80%	100%	100%	100%	90%	99%	99%	80%	92%	92%	100%	100%	100%	–	–	pest or weed control at 15 g/ha ([2]; application rate 15 g/ha): 20%; pest or weed control at 15 g/ha ([3]; application rate 15 g/ha): 80%; pest or weed control at 15 g/ha ([4]; application rate 15 g/ha): 40%; pest or weed control at 15 g/ha ([5]; application rate 15 g/ha): 30%; ALOMY % phytotoxicity [6, 11]: 99%; AVEFA % phytotoxicity (Avena fatua (AVEFA) [7]; [11]): 88%; POAAN % phytotoxicity (Poa annua (POAAN); [11]): 75%; SETVI % phytotoxicity (Setaria viridis (SETVI); [11]): 99%
CC#Cc1cc(C)c(C2=C(O)CC(Cc3ccc(F)cn3)C2=O)c(C)c1 (stereo not shown) [Compound A-11]	70%	100%	40%	90%	70%	80%	73%	85%	85%	50%	93%	88%	70%	75%	75%	89%	98%	97%	50%	100%	pest or weed control at 60 g/ha [4]: 100%; pest or weed control at 60 g/ha [5]: 100%
